How the values were obtained:
[1] = Compatibility with oxaliplatin in physiological solution (1H NMR, mass spectra); type: physicochemical
[2] = test system: primary rat astrocytes; assay: Superoxide anion production in primary rat astrocytes incubated with oxaliplatin; type: cell-based; conditions: oxaliplatin 100 μM alone, 4 hours; control 16.9±0.3 μM
Description: FIG. 1. Evaluation of the antioxidant profile of ADM-12 in a rat primary astrocytes cell culture *P<0.01 with respect to the untreated control and ̂P<0.01 with respect to astrocytes treated with oxaliplatin.
The antioxidant profile of ADM-12 also emerges in a cell culture of primary rat astrocytes (FIG. 1). Incubation of cells with the chemotherapic agent oxaliplatin 100 μM induces a significant production of the superoxide anion, which after 4 hours increases from 16.9±0.3 μM of the control to 31.1±2.1 μM; co-treatment with ADM-12 100 μM reduces the production of oxygen free radicals to 21.0±0.4 μM.

O=C1[O][Pt]2([NH][C@@H]3CCCC[C@H]3[NH]2)[O]C1=O [oxaliplatin]
structural integrity when mixed ([1]; ADM-12 and oxaliplatin mixed in physiological solution): remain structurally unaltered
signal variations at 1H NMR and in mass spectra ([1]; ADM-12 with oxaliplatin in physiological solution, 24 and 48 hours, room temperature and 37° C.): does not show signal variations
production of the superoxide anion [2]: 31.1 ± 2.1 µM
